Entries after “also recorded” stand apart in the source; their conditions may differ.
How the values were obtained:
[1] = test system: A549 cells; assay: Confocal fluorescence microscopy of nucleic acid delivered by lipid; format: cell-based, human; settings: boiling method, 4 μl lipid, 6 hours co-incubation
Experimental: Experimental materials: A549 cells (purchased from the Cell Center of the Chinese Academy of Medical Sciences), PGY-sRNA-6-Cy3 (purchased from Ribobio Biotechnology Co., Ltd.), lipid No. 41, Zeiss LSM780 (purchased from Zeiss, Germany), Alexa Fluor® 488 phalloidin (purchased from Invitrogen, USA), DAPI (purchased from Invitrogen, USA), paraformaldehyde (purchased from sigma, USA).
Experimental methods: PGY-sRNA-6-FAM was dissolved in 100 μl water, mixed with 4 μl lipid, and prepared by the boiling method. Then the mixture was dropped into A549 cells, and after 6 hours of co-incubation, the samples were washed three times with PBS, fixed with 4% paraformaldehyde, washed three times with PBS, stained with Alexa Fluor® 488 phalloidin for 30 min, washed 3 times with PBS, and stained with DAPI for 5 min, washed with PBS, and then sealed.
Experimental method: PGY-sRNA-6-FAM was dissolved in 100 μl water, and mixed with 4 μl lipid, and prepared by boiling method. Then, the mixture was dropped into A549 cells, and after 6 hours of co-incubation, the samples were washed three times with PBS, fixed with 4% paraformaldehyde, washed three times with PBS, stained with Alexa Fluor® 488 phalloidin for 30 min, washed 3 times with PBS, and stained with DAPI for 5 min, PBS washed, and then sealed.

[2] = In vivo delivery of single-stranded sRNA by single lipid, gavage (Example 11); parameters: species or system C57 mice; settings: 10 μL lipid, sRNA 1 nmol each, 12 hours; for delivery of sRNA single-stranded nucleic acid into mouse blood: FIGS. 108, 112-115, oral (gavage), heating method, vs POPC and Lipofectamine RNAiMAX
Experimental: 1. Experimental animals: C57 mice, male, approximately 6 weeks old.
2. Manufacture of lipid mixture: the prepration was conducted on the basis of a dose of 10 μ1 lipid-1 nmol sRNA per mouse as follows: dissolved 1 nmol of each sRNA in 500 μl DEPC water, added 10 μl of the corresponding lipid, pipette to mix thoroughly, and then naturally cooled down after water bath for 15 min at 90° C., and administered via gavage.
1) Tissue sampling and extraction of RNA: 6 hours after gavage in mice, took 500 μl of blood from the eyeball, added 1.5 ml Trizol Reagent LS to thoroughly mix and lyse, added 3 ml Trizol Reagent (purchased from Invitrogen) to the tissue samples and homogenized until complete lysis. Tissues sampled: live/stomach/small intestine.
2) Reverse transcription of sRNA to cDNA: Reverse Transcription Kit (High-Capacity cDNA Reverse Transcription Kits, Applied Biosystems, cat. no. 4368813), was used to reverse transcribe the total RNA to cDNA, and the reverse system was as follows: template RNA (150 ng/μL) 10 μL, 10× RT buffer, 2.0 μL, 25× dNTP Mix (100 mM) 0.8 μL, random primers 2.0 μL, the Multi Scribe™ reverse Transcriptase 1.0 μL, RNase inhibitor 1.0 μL, nuclease-free H2O 3.2 μL. After a brief centrifugation, the reaction was loaded in a PCR reactor. The reaction conditions were as follows: (1) 25° C., 10 min; (2) 37° C., 120 min; (3) 85° C., 5 min; (4) 4° C., termination of the reaction. After the reaction, 20 μL RNase-free ddH2O was added to make up the final volume to 40 μL.
LightCycler 480 fluorescence quantitative PCR instrumentwas used, and the PCR reaction conditions were: 95° C. , 5 min for pre-denaturation, followed by the PCR amplification cycle: (1) 95° C., 10 s; (2) 55° C., 10 s; (3) 72° C., 20 s; a total of 40 cycles; 40° C. for 10 s in the end to cool down. The forward primer and reverse primer of the amplification reaction were designed and synthesized by Beijing Qing Ke New Industrial Biotechnology Co., Ltd. (U6 F primer: GCGCGTCGTGAAGCGTTC (SEQ ID NO: 23), U6 R primer: GTGCAGGGTCCGAGGT (SEQ ID NO: 24)).
3) The relative expression amount was calculated by the 2-ΔCt method.
5) Treatment group of single lipid and nucleic acid mixture: a mixture of 10 μL of single lipid (No. 41) with single-stranded sRNA mixure solution (PGY-sRNA-23, PGY-sRNA-26 and PGY-sRNA-32, 1 nmol each) was treated by heating method and then given to mice via intragastric administration.
2. 12 hours after intragastric administration, the blood was taken from the eyeball, and various tissues (liver/stomach/small intestine) was sampled. TRIzol was used for full lysis and the RNA was extracted to detect the amount of entry.

[3] = test system: A549 cells; assay: Flow cytometry detection of the efficiency of nucleic acid delivery by lipid; format: cell-based, human; settings: boiling method, 6 hours co-incubation
Experimental: Experimental materials: A549 cells (purchased from the Cell Center of the Chinese Academy of Medical Sciences), FAM-sRNA (purchased from Ribobio Biotechnology Co., Ltd.), lipid No. 41, Accuri® C6 instrument (purchased from BD, USA).
Experimental methods: PGY-sRNA-6-FAM was dissolved in 100 μl water, mixed with 4 μl lipid, and prepared by boiling method. Then the mixture was dropped into A549 cells, and after 6 hours of co-incubation, the samples were collected for detection as follows: firstly wash three times with PBS, then digest with trypsin for 3 minutes and remove trypsin, wash with PBS again and then blow down the cells. The detection was performed using Accuri® C6 instrument.
Experimental Method: PGY-sRNA-6-FAM was dissolved in 100 μl water, and mixed with 4 μl lipid, and prepared into lipid-sRNA mixture by boiling method. Then, the mixture was dropped into A549 cells, and after 6 hours of co-incubation, the samples were collected and washed three times with PBS, then digested with trypsin into single cells, washed with re-suspended with PBS and then blown down for Accuri® C6 instrument detection.
Experimental Method: FAM-sRNA was dissolved in 100 μl water, and mixed with 4 μl lipid, prepared by boiling method. Then, the lipid-sRNA mixture was dropped into A549 cells, and after 6 hours of co-incubation, the samples were collected and washed three times with PBS, then digested into single cells with trypsin, re-suspended with PBS and then blown down for Accuri® C6 instrument detection.

With CCCCCCCC/C=C\CCCCCCCCCCCC(=O)O[C@H](COC(=O)CCCCCCCCCCCCCCC)COP(=O)(O)OCCN [No. 40, (2-aminoethoxy) [(2R)-2-[(13Z)-docos-13-enoyloxy]-3-(hexadecanoyloxy)propoxy] phosphinic acid] the “entry of PGY-sRNA-6-Cy3 observed under confocal microscopy” value (shortened to “entry of PGY-sRNA-6-Cy3 observed”) [1] was “could effectively deliver single-stranded RNA into A549 cells” and the “delivery of sRNA single-stranded nucleic acid into mouse blood” value [2] was “could effectively deliver sRNA single-stranded nucleic acid into mouse blood via oral administration; also recorded: the delivery effect was better than POPC and Lipofectamine RNAiMAX”.

With CCCCCC/C=C\CCCCCCCC(=O)O[C@H](COC(=O)CCCCCCCCCCCCCCC)COP(=O)(O)OCCN [No. 38, (2-aminoethoxy) [(2R)-2-[(9Z)-hexadec-9-enoyloxy]-3-(hexadecanoyloxy)propoxy] phosphinic acid] the “efficiency in delivering PGY-sRNA-6 single-stranded RNA (flow cytometry)” value ([3]; 4 μl lipid) was 72.5%, the “efficiency of PGY-sRNA-6 single-stranded RNA delivery relative to positive control RNAiMAX (flow cytometry)” value [3] was “close to that of the positive control RNAiMAX” and the “entry of PGY-sRNA-6-Cy3 observed” value [1] was “could effectively deliver double-stranded nucleic acid into A549 cells”. The “delivery of sRNA single-stranded nucleic acid into mouse blood” value [2] was “could effectively deliver sRNA single-stranded nucleic acid into mouse blood via oral administration; also recorded: the delivery effect was better than POPC and Lipofectamine RNAiMAX”.

With CCCCCCCCCCCCCCCCCCC[C@@H](O)[C@@H](N)CO [No. 41, Sphinganine (d22:0)] the “efficiency in delivering PGY-sRNA-6 double-stranded RNA (flow cytometry)” value ([3]; 4 μl lipid) was 96.7%, the “efficiency in delivering PGY-sRNA-6 single-stranded RNA (flow cytometry)” value ([3]; 4 μl lipid) was 94.1% and the “entry of PGY-sRNA-6-Cy3 observed” value [1] was “could effectively deliver double-stranded nucleic acid into A549 cells”. For the same molecule, the “delivery of sRNA single-stranded nucleic acid into mouse stomach” value ([2]; FIG. 109, gavage) was “could effectively deliver sRNA single-stranded nucleic acid into the mouse stomach via oral administration to protect sRNA from degradation”, the “delivery of sRNA single-stranded nucleic acid into mouse small intestine” value ([2]; FIG. 110, gavage) was “could effectively deliver sRNA single-stranded nucleic acid into the mouse small intestine via oral administration to protect sRNA from degradation” and the “delivery of sRNA single-stranded nucleic acid into mouse liver” value ([2]; FIG. 111, gavage) was “could effectively deliver sRNA single-stranded nucleic acid into the mouse liver via oral administration to protect sRNA from degradation”. For the same molecule, the “delivery of sRNA single-stranded nucleic acid into mouse blood” value [2] was “could effectively deliver sRNA single-stranded nucleic acid into the mouse blood via oral administration; also recorded: the delivery effect was better than POPC and Lipofectamine RNAiMAX”.

In the case of CCCCCCCC/C=C\CCCCCCCCCCCCCC(=O)O[C@H](COC(=O)CCCCCCCCCCCCCC)COP(=O)(O)OCCN [No. 64, 1-pentadecanoyl-2-nervonoyl-sn-glycero-3-phospho-ethanolamine], the “efficiency of PGY-sRNA-6 single-stranded RNA delivery relative to positive control RNAiMAX (flow cytometry)” value [3] was “½”, the “entry of PGY-sRNA-6-Cy3 observed” value [1] was “could effectively deliver single-stranded RNA into A549 cells” and the “delivery of sRNA single-stranded nucleic acid into mouse blood” value [2] was “could effectively deliver sRNA single-stranded nucleic acid into mouse blood via oral administration; also recorded: the delivery effect was better than POPC and Lipofectamine RNAiMAX”.

— patent US20210100905A1, “APPLICATION OF COMPOUND OR TRADITIONAL CHINESE MEDICINE EXTRACT IN PREPARATION OF NUCLEIC ACID DELIVERY AGENT, AND RELATED PRODUCTS” (INSTITUTE OF BASIC MEDICAL SCIENCES CHINESE ACADEMY OF …, priority 2018, published 2021)
